2 compounds from patent publication US9718781B2, “Methods and compounds for treating proliferative disorders and viral infections” (University College Dublin, National University of Ireland, …, priority 2012, dated 2017) can be followed below.

Read-outs that look alike come from different tables or passages of the source.

One may read the IC50 as the point on the concentration scale where inhibition reaches its midpoint.

In one test the target is T1, TPβ (Homo sapiens, UniProt P21731).
T1 construct: expressed in transfected cells
The test can be described thus: U46619-induced [Ca2+]i mobilization in HEK.TPβ cells. The class given is cell-based. The conditions noted are these: for remaining activity at 1 µM / remaining activity at 10 µM: % of agonist-induced response in vehicle-treated cells; for remaining activity at 1 µM: read-out: Percentage of Control, TPβ, 1 μM; for remaining activity at 10 µM: antagonist 10 μM, read-out: Percentage of Control, TPβ, 10 μM. An outline of the steps: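 Fluo-4-loaded (3 μM, 1 h, 25° C.) HEK293 TPβ cells in KREBs-HEPES pH 7.4, pre-incubated 10 min with test compound, then stimulated with 1 μM U46619. Fluorescence at 520 nm followed for 75 s, calibrated by Fmax (2% Triton X100) and Fmin (1 mM EGTA).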

A further test deals with platelets in whole blood. Briefly: U46619-mediated platelet aggregation in whole blood (Sysmex haematological analyzer). The conditions noted are these: antagonist 0.1 μM, 1 μM U46619. The class given is cell-based, human. How it is done:
From an efficacy point of view, this is an important assay and, physiologically, relevant with respect to the therapeutic target.
Initially, the Sysmex haematological analyzer was used to examine the effect of the TP antagonists at a single concentration (0.1 μM) on U46619 (1 μM)-mediated platelet aggregation in whole blood.
FIG. 3 illustrates effects of the TP antagonist compounds on U46619-mediated platelet aggregation. Blood was taken form healthy volunteer by venupuncture into syringes containing 3.8% sodium citrate, 10 μM Indomethacin, such that the ratio of anticoagulant:blood was 1:9. The blood was aliquoted and incubated for 10 min with TP20 and selected NTP compounds, as indicated, where the antagonist were used at 0.1 μM prior to stimulation with 1 μM U46619 for 3 min. The blood was fixed with formaldehyde and platelet numbers counted using the Sysmex haematological analyzer. Data is presented as the mean percentage of control or non-treated blood sample (Percentage of Control; %) and represent data from 3 independent experiments were samples were treated in duplicate.

Where [1] appears, read: side-by-side comparison, n=6, Table 2.6, read-out: IC50 values for inhibition of U46619-mediated [Ca2+]i, TPβ.

T1 sequence (P21731 1-407 isoform P21731-2): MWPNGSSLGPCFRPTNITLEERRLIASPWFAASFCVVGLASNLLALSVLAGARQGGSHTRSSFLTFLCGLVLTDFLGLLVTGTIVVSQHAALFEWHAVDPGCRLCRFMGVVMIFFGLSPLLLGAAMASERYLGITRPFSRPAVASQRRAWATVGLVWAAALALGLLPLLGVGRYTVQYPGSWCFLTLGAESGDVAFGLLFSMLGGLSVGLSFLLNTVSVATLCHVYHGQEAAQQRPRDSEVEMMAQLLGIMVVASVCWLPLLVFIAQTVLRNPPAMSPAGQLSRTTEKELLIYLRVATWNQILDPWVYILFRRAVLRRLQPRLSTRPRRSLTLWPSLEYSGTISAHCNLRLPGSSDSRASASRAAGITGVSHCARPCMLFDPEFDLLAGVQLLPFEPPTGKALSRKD

As to `COc1ccc(-c2cccc(Oc3ccc([N+](=O)[O-])cc3S(=O)(=O)NC(=O)NC(C)(C)C)c2)cc1` [TP20, N-(tert-butylcarbamoyl)-2-((4′-methoxy-[1,1′-biphenyl]-3-yl)oxy)-5-nitrobenzene-sulfonamide], on TPβ (1 & 10 μM, HEK.TPβ cells), the “reduction of U46619-mediated calcium mobilization responses” value was “approx. 90%”. For the same compound, the IC50 at TPβ (HEK.TPβ cells, 1 μM U46619, Table 2, read-out: IC50 data for U46619-mediated [Ca2+]i mobilization, TPβ) was 7.33 nM; on TPβ (setting [1]) it was 9.61 ± 1.46 nM. Besides, the remaining activity at 1 µM on TPβ (antagonist 1 μM, 1 μM U46619) was 12.6 ± 1.46%. The remaining activity at 10 µM on TPβ (1 μM U46619) amounted to 9.96 ± 1.7%. For the same compound, the “inhibition of U46619-mediated reduction in platelet number” value in the test with platelets in whole blood is “almost completely inhibited”.
In the case of `COc1ccc(-c2cccc(Oc3ccc(C#N)cc3S(=O)(=O)NC(=O)NC(C)(C)C)c2)cc1` [NTP4, N-(tert-butylcarbamoyl)-5-cyano-2-((4′-methoxy-[1,1′-biphenyl]-3-yl)oxy)benzenesulfonamide], on TPβ (antagonist 1 μM, 1 μM U46619), the “activity class in HEK.TPβ cells” value is reported as “ACTIVE” and the remaining activity at 1 µM came to 22.5 ± 3.7%. For the same compound, at TPβ (1 μM U46619), the remaining activity at 10 µM amounted to 10.2 ± 0.95%. Moreover, the IC50 on TPβ (setting [1]) came to 60.4 ± 8 nM. Further, the “inhibition of U46619-mediated responses” value on TPβ (used at 0.5, HEK.TPβ cells) is “greater than 50%”. For the same compound, the “inhibition of U46619-mediated reduction in platelet number” value in the test with platelets in whole blood is given as “approx. 50%”.
